Measured values from patent US20190282501A1, “HYDROALCOHOLIC FOAM FORMULATIONS OF NAFTIFINE” (priority 2016, published 2019).
Structures can show the parent of a compound that is named as a salt. Where two headings read alike, the source gives them in different places.

What was measured:
[1] = Method: To generate a foam composition that is capable of maintaining the high solubility of naftifine HCl without needing to add in surfactants, the solubility of the API with various excipients was tested. Naftifine hydrochloride was combined with different solvents to identify which solvents are able to solubilize the API. The objective of this study was to determine which solvents can be useful in the development of formulations where the API is soluble. The objective of this study was not to determine the maximal solubility of the API in the tested solvents.
To prepare the mixtures, the API was added at a 1% w/w concentration to each solvent at room temperature under mixing. Solubility at room temperature was then assessed after 24 hours by determining the presence of API crystals using microscopic observation at ×200 magnification under polarized light. The mixture was then heated to about 80° C. for 10 minutes and mixed. Solubility at 80° C. was assessed by visual observation. The mixture was then cooled to room temperature and solubility was assessed after 24 hours by determining the presence of API crystals using microscopic evaluation at ×200 magnification under polarized light.
The first column in Table 5 relates to the solubility at room temperature before heating to 80° C. The second column relates to the solubility at 80° C. as observed visually. The third column relates to the solubility after the mixture has been heated to 80° C. and cooled down to room temperature.

[2] = after 3m and after 6m at 25° C., 30° C. and 40° C.; stated below Table 6B (Formulation D)
Method: The amount of active agent present is analyzed in foam expelled from various pressurized canisters containing foam formulations using HPLC. Analysis is carried out at zero time and at appropriate time intervals thereafter. The canisters are stored in controlled temperature incubators at one or more of 5° C., at 25° C., at, 40° C. and at 50° C. At appropriate time intervals canisters are removed and the amount of active agent in the foam sample is measured.

[3] = in Capric caprylic triglycerides

- Dissolution in hydrophobic solvents ([1]; hydrophobic solvents, even under heating): did not dissolve
- Max. Solubility at RT after heating at 80° C. [1, 3]: <1%
- Maximum Solubility at 80° C. [1, 3]: <1%
- Maximum Solubility at RT [1, 3]: <1%
- Max. Solubility at RT after heating at 80° C. ([1]; in Castor oil): <1%
- Maximum Solubility at 80° C. ([1]; in Castor oil): <1%
- Maximum Solubility at RT ([1]; in Castor oil): <1%
- Max. Solubility at RT after heating at 80° C. ([1]; in Cyclomethicone): <1%
- Maximum Solubility at 80° C. ([1]; in Cyclomethicone): <1%
- Maximum Solubility at RT ([1]; in Cyclomethicone): <1%
- Max. Solubility at RT after heating at 80° C. ([1]; in Diethyl sebacate): <1%
- Maximum Solubility at 80° C. ([1]; in Diethyl sebacate): <1%
- Maximum Solubility at RT ([1]; in Diethyl sebacate): <1%
- Max. Solubility at RT after heating at 80° C. ([1]; in Diisopropyl adipate): <1%
- Maximum Solubility at 80° C. ([1]; in Diisopropyl adipate): <1%
- Maximum Solubility at RT ([1]; in Diisopropyl adipate): <1%
- Max. Solubility at RT after heating at 80° C. ([1]; in Dimethyl isosorbide): <1%
- Maximum Solubility at 80° C. ([1]; in Dimethyl isosorbide): <1%
- Maximum Solubility at RT ([1]; in Dimethyl isosorbide): <1%
- Max. Solubility at RT after heating at 80° C. ([1]; in Dimethyl sulfoxide): >8%
- Maximum Solubility at 80° C. ([1]; in Dimethyl sulfoxide): >8%
- Maximum Solubility at RT ([1]; in Dimethyl sulfoxide): ~2%
- Maximum Solubility at 80° C. ([1]; in Ethanol 95%): >8%
- Maximum Solubility at RT ([1]; in Ethanol 95%): ~4%
- Max. Solubility at RT after heating at 80° C. ([1]; in Ethanol 95%, hydrochloride): >8%
- Max. Solubility at RT after heating at 80° C. ([1]; in Ethanol 95%, listed as naftifine HCl, hydrochloride): higher than 8%
- Max. Solubility at RT after heating at 80° C. ([1]; in Glycerin): ~1%
- Maximum Solubility at 80° C. ([1]; in Glycerin): ~1%
- Maximum Solubility at RT ([1]; in Glycerin): <1%
- Max. Solubility at RT after heating at 80° C. ([1]; in Glycofurol): ~1%
- Maximum Solubility at 80° C. ([1]; in Glycofurol): ~1%
- Maximum Solubility at RT ([1]; in Glycofurol): <1%
- Max. Solubility at RT after heating at 80° C. ([1]; in Hexylene glycol): ~1%
- Maximum Solubility at 80° C. ([1]; in Hexylene glycol): ~1%
- Maximum Solubility at RT ([1]; in Hexylene glycol): <1%
- Max. Solubility at RT after heating at 80° C. ([1]; in Isopropyl alcohol): ~2%
- Maximum Solubility at 80° C. ([1]; in Isopropyl alcohol): ~2%
- Maximum Solubility at RT ([1]; in Isopropyl alcohol): <1%
- Max. Solubility at RT after heating at 80° C. ([1]; in Isopropyl myristate): <1%
- Maximum Solubility at 80° C. ([1]; in Isopropyl myristate): <1%
- Maximum Solubility at RT ([1]; in Isopropyl myristate): <1%
- Max. Solubility at RT after heating at 80° C. ([1]; in Isostearic acid): <1%
- Maximum Solubility at 80° C. ([1]; in Isostearic acid): <1%
- Maximum Solubility at RT ([1]; in Isostearic acid): <1%
- Max. Solubility at RT after heating at 80° C. ([1]; in Mineral oil light): <1%
- Maximum Solubility at 80° C. ([1]; in Mineral oil light): <1%
- Maximum Solubility at RT ([1]; in Mineral oil light): <1%
- Max. Solubility at RT after heating at 80° C. ([1]; in Octyldodecanol): <1%
- Maximum Solubility at 80° C. ([1]; in Octyldodecanol): <1%
- Maximum Solubility at RT ([1]; in Octyldodecanol): <1%
- Max. Solubility at RT after heating at 80° C. ([1]; in Oleic acid): <1%
- Maximum Solubility at 80° C. ([1]; in Oleic acid): <1%
- Maximum Solubility at RT ([1]; in Oleic acid): <1%
- Max. Solubility at RT after heating at 80° C. ([1]; in Oleyl alcohol): <1%
- Maximum Solubility at 80° C. ([1]; in Oleyl alcohol): <1%
- Maximum Solubility at RT ([1]; in Oleyl alcohol): <1%
- Max. Solubility at RT after heating at 80° C. ([1]; in Olive oil): <1%
- Maximum Solubility at 80° C. ([1]; in Olive oil): <1%
- Maximum Solubility at RT ([1]; in Olive oil): <1%
- Max. Solubility at RT after heating at 80° C. ([1]; in PPG-15 stearyl ether): <1%
- Maximum Solubility at 80° C. ([1]; in PPG-15 stearyl ether): <1%
- Maximum Solubility at RT ([1]; in PPG-15 stearyl ether): <1%
- Max. Solubility at RT after heating at 80° C. ([1]; in Polyethylene glycol 200): ~3%
- Maximum Solubility at 80° C. ([1]; in Polyethylene glycol 200): ~6%
- Maximum Solubility at RT ([1]; in Polyethylene glycol 200): <1%
- Max. Solubility at RT after heating at 80° C. ([1]; in Polyethylene glycol 400): <1%
- Maximum Solubility at 80° C. ([1]; in Polyethylene glycol 400): <1%
- Maximum Solubility at RT ([1]; in Polyethylene glycol 400): <1%
- Max. Solubility at RT after heating at 80° C. ([1]; in Propylene glycol): >8%
- Maximum Solubility at 80° C. ([1]; in Propylene glycol): >8%
- Maximum Solubility at RT ([1]; in Propylene glycol): <1%
- Max. Solubility at RT after heating at 80° C. ([1]; in Sodium pyroglutamic acid): <1%
- Maximum Solubility at 80° C. ([1]; in Sodium pyroglutamic acid): <1%
- Maximum Solubility at RT ([1]; in Sodium pyroglutamic acid): <1%
- Max. Solubility at RT after heating at 80° C. ([1]; in Soybean oil): <1%
- Maximum Solubility at 80° C. ([1]; in Soybean oil): <1%
- Maximum Solubility at RT ([1]; in Soybean oil): <1%
- Max. Solubility at RT after heating at 80° C. ([1]; in Transcutol): ~2%
- Maximum Solubility at 80° C. ([1]; in Transcutol): ~2%
- Maximum Solubility at RT ([1]; in Transcutol): <1%
- Max. Solubility at RT after heating at 80° C. ([1]; in Water): ~1%
- Maximum Solubility at 80° C. ([1]; in Water): ~1%
- Maximum Solubility at RT ([1]; in Water): <1%
- Dissolution in hydrophilic solvents ([1]; propylene glycol (after heating), ethanol, dimethyl sulfoxide and polyethylene glycol 200 (after heating)): dissolved well
- Stability of naftifine [2]: stable
Structure (SMILES): CN(C/C=C/c1ccccc1)Cc1cccc2ccccc12 [naftifine hydrochloride, (E)-N-methyl-N-(1-naphthyl-methyl)-3-phenyl-2-propen-l-amine hydrochloride]
